Measurements from PMC3679074, “Ligand Binding and Signaling of Dendritic Cell Immunoreceptor (DCIR) Is Modulated by the Glycosylation of the Carbohydrate Recognition Domain” (PLoS ONE, 2013).
Positions count from the first letter of the chain named.

Key:
DCIR-Fc [1] = target: T1, DCIR-Fc (Homo sapiens, UniProt Q9UMR7); assay: ELISA, biotinylated neoglycoconjugate on immobilized Fc protein; type: binding
T1 construct: gene CLEC4A; extracellular domain fused at C terminus to human IgG1 Fc (tag); produced in CHO or CHO Lec8 cells, protein A purified; 'residues 208-689' [sic]
T1 sequence (Q9UMR7 70-230): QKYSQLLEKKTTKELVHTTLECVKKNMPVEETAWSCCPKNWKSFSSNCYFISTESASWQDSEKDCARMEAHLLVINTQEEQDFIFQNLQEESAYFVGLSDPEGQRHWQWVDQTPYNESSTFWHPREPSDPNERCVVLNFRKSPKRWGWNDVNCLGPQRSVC

DCIR-Fc [2] = target: T2, DCIR-Fc (Homo sapiens, UniProt Q9UMR7, N185Q); assay: ELISA, soluble Fc protein on coated neoglycoconjugate; type: binding; settings: 50 µg/ml Fc protein, room temperature; multivalent PAA conjugate; mutant lacks CRD N-glycan
T2 construct: gene CLEC4A; extracellular domain fused at C terminus to human IgG1 Fc (tag); produced in CHO or CHO Lec8 cells, protein A purified; 'residues 208-689' [sic]
T2 sequence (Q9UMR7 70-230 N185Q): T1 sequence (Q9UMR7 70-230) with N116Q

| Structure (SMILES) | ELISA, biotinylated neoglycoconjugate on immobilized Fc protein (DCIR-Fc [1]; pH 7.4, Ca2+/Mg2+, room temperature, labelled compound (multivalent biotinylated PAA conjugate), EGTA-sensitive) | ELISA, soluble Fc protein on coated neoglycoconjugate (DCIR-Fc [2]) | ELISA, biotinylated neoglycoconjugate on immobilized Fc protein (DCIR-Fc [1]; labelled compound (multivalent biotinylated PAA conjugate, 5 µg/ml), EGTA control subtracted) |
| --- | --- | --- | --- |
| CC(=O)N[C@H]1C(O)O[C@H](CO)[C@@H](O[C@@H]2O[C@@H](C)[C@@H](O)[C@@H](O)[C@@H]2O)[C@@H]1O[C@@H]1O[C@H](CO)[C@H](O)[C@H](O)[C@H]1O[C@@H]1O[C@@H](C)[C@@H](O)[C@@H](O)[C@@H]1O (stereo partly drawn) [Lewis^b] | We observed CLR-specific binding of Man3 and Lewis^b to immobilized DCIR-Fc | strongly interacted with immobilized Lewis^b and Man3 | – |
| CC(=O)N[C@H]1C(O)O[C@H](CO)[C@@H](O[C@@H]2O[C@@H](C)[C@@H](O)[C@@H](O)[C@@H]2O)[C@@H]1O[C@@H]1O[C@H](CO)[C@H](O)[C@H](OS(=O)(=O)O)[C@H]1O (stereo partly drawn) [sulfo-Lewis^a] | – | – | immobilized glycosylated DCIR-Fc could interact with sulfo-Lewis^a |
